Earlier results on one compound are cited in US6924311B2, “Methods for affecting various diseases utilizing LXR compounds” (X-Ceptor Therapeutics, Inc., priority 2001, dated 2005).

For the data set the following is noted: db/db mice, known anti-diabetic RXR agonist, positive control; cited from earlier work.

Take `CC1(C)CCC(C)(C)c2cc(C3(c4ccc(C(=O)O)cn4)CC3)c(F)cc21` [Compound 2, 6-[1-(3-Fluoro-5,5,8,8-tetramethyl-5,6,7,8-tetrahydro-napthalen-2-yl)-cyclopropyl]-nicotinic acid]: the “effect on blood glucose levels” value is “effectively lower blood glucose levels in db/db mice”.
